Assays:
[1] = test system: apolipoprotein(a), [apo(a)], apolipoproteinB-100, [apoB-100], coupling reaction that generates Lp(a); assay: LPABC screen: lipoprotein(a) biochemical coupling assay, Lp(a) by ELISA; details: recombinant apo(a) + HepG2 conditioned media, 67 minutes, 37° C.; ^a = multiple tests
From the text: The lipoprotein(a), [Lp(a)], biochemical coupling assay (LPABC) is used to characterize inhibitors of the apolipoprotein(a), [apo(a)], apolipoproteinB-100, [apoB-100], coupling reaction that generates Lp(a).
Protocol Conditioned media from 293 cells (ATCC CRL-1573), permanently transfected with an apo(a) 17-kringle cDNA expression construct (pcDNA-AMP, In Vitrogen, Carlsbad, Calif.) using standard molecular biology techniques, was used as a source of recombinant apo(a). The 293 cell conditioned media containing the recombinant apo(a) is diluted 1:3 with phosphate buffered saline (PBS) and 90 μL is pipetted into each well of a 96-well plate and placed into a 37° C. incubator for 10 minutes. Twenty microliters of a 0.3 to 50 μM solution of a compound of the present invention in PBS is added to the warmed plate. Ninety microliters of HepG2 (ATCC HB-8065) cell conditioned media diluted 1:3 with PBS is added to the apo(a)/compound mixture and mixed by pipetting up and down 5 times. The reaction is incubated for 67 minutes in a 37° C. incubator. A 100 μL aliquot of the reaction is removed and assayed for its Lp(a) content by an enzyme linked immunosorbent assay (ELISA).

[2] = test system: Lp(a) production (HepG2^K17 cells); assay: LPA3 screen: inhibition of Lp(a) production in HepG2^K17 cells, Lp(a) by ELISA; type: cell-based; details: 8 h, Lp(a) normalized for total protein, ^a = multiple tests
Description: The LPA3 screen is used to identify compounds that inhibit Lp(a) production. This screen employs permanently transfected HepG2 cells (HepG2^K17) that are generated using an apo(a) 17-kringle cDNA expression construct (pcDNA-AMP, In Vitrogen, Carlsbad, Calif.) in accordance with methods that are well-known in molecular biology.
HepG2^K17 cells are seeded in 96-well plates at a density of 75,000 cells per well in 0.25 mL of Dulbecco's Modified Eagle Media (DMEM) containing 10% fetal bovine serum (FBS). Seeded plates are incubated overnight in a 37° C., 5% CO2 /95% […] incubator. The media is removed, replaced with (1) fresh media, or (2) fresh media plus 0.3 to 50 μM of a compound of the present invention in 20 μL of PBS, and the plates returned to the incubator for 8 hours. After the additional 8 hours of incubation, Lp(a) is assayed in the media by ELISA. Cells are digested with 0.5N NaOH overnight and assayed for total protein. Lp(a) values are normalized for total protein content.

| SMILES | IC50 [1] [µM] | IC50 [2] [µM] |
| --- | --- | --- |
| CCOC(=O)C(NCC1CCCCC1)c1cc(C(C)(C)C)c(O)c(C(C)(C)C)c1 (stereo not shown) [Example 6, (Cyclohexylmethyl-amino)-(3,5-di-tert-butyl-4-hydroxy-phenyl)-acetic acid ethyl ester] | 6.52 | > 74 |
| CCOC(=O)C(NCc1ccc([N+](=O)[O-])cc1)c1cc(C(C)(C)C)c(O)c(C(C)(C)C)c1 (stereo not shown) [Example 45, (3,5-Di-tert-butyl-4-hydroxy-phenyl)-(4-nitro-benzylamino)-acetic acid ethyl ester] | 96.8 | > 74 |
| CCOC(=O)C(c1cc(C(C)(C)C)c(O)c(C(C)(C)C)c1)N1CCCC1 (stereo not shown) [Example 52, (3,5-Di-tert-butyl-4-hydroxy-phenyl)-(N-pyrollidinyl)-acetic acid ethyl ester] | 1.55 | 2.7 |
| CCOC(=O)C(NCc1cccnc1)c1cc(C(C)(C)C)c(O)c(C(C)(C)C)c1 (stereo not shown) [Example 2, (3,5-Di-tert-butyl-4-hydroxy-phenyl)-[(pyridin-3-ylmethyl)-amino]-acetic acid ethyl ester] | 10 | 20 |
| CCOC(=O)C(NCc1cccc([N+](=O)[O-])c1)c1cc(C(C)(C)C)c(O)c(C(C)(C)C)c1 (stereo not shown) [Example 50, (3,5-Di-tert-butyl-4-hydroxy-phenyl)-(3-nitro-benzylamino)-acetic acid ethyl ester] | 46.7 | > 74 |

Second part, led by results:

| IC50 [1] [µM] | SMILES | IC50 [2] [µM] |
| --- | --- | --- |
| 50.2 | CCOC(=O)C(NCc1ccccc1F)c1cc(C(C)(C)C)c(O)c(C(C)(C)C)c1 (stereo not shown) [Example 40, (3,5-Di-tert-butyl-4-hydroxy-phenyl)-(2-fluoro-benzylamino]-acetic acid ethyl ester] | > 74 |
| 68.4 | CCOC(=O)C(NCc1cccc(O)c1)c1cc(C(C)(C)C)c(O)c(C(C)(C)C)c1 (stereo not shown) [Example 42, (3,5-Di-tert-butyl-4-hydroxy-phenyl)-(3-hydroxy-benzylamino)-acetic acid ethyl ester] | > 74 |
| 59.1 | CCOC(=O)C(NCc1ccc(O)c(OCC)c1)c1cc(C(C)(C)C)c(O)c(C(C)(C)C)c1 (stereo not shown) [Example 39, (3,5-Di-tert-butyl-4-hydroxy-phenyl)-(3-ethoxy-4-hydroxy-benzylamino)-acetic acid ethyl ester] | > 74 |
| 43.4 | CCOC(=O)C(NCc1ccccc1Cl)c1cc(C(C)(C)C)c(O)c(C(C)(C)C)c1 (stereo not shown) [Example 33, (2-Chloro-benzylamino)-(3,5-di-tert-butyl-4-hydroxy-phenyl)-acetic acid ethyl ester] | > 74 |
| 15 | CCOC(=O)C(NCc1ccc(O)c(OC)c1)c1cc(C(C)(C)C)c(O)c(C(C)(C)C)c1 (stereo not shown) [Example 49, (3,5-Di-tert-butyl-4-hydroxy-phenyl)-(4-hydroxy-3-methoxy-benzylamino)-acetic acid ethyl ester] | > 74 |
| 15.9 | CCOC(=O)C(NCc1cc(Cl)cc(Cl)c1O)c1cc(C(C)(C)C)c(O)c(C(C)(C)C)c1 (stereo not shown) [Example 35, (3,5-Di-tert-butyl-4-hydroxy-phenyl)-(3,5-dichloro-2-hydroxy-benzylamino)-acetic acid ethyl ester] | > 74 |

Source: patent US6017918A, “Phenyl glycine compounds and methods of treating atherosclerosis and restenosis” (Warner-Lambert Company, priority 1999, dated 2000)
